Biological target: human orexin type 2 receptor (hOX2R) (Homo sapiens (Human), UniProt O43614)
Assay: Measurement of orexin type 2 receptor agonist activity (Experimental Example 2-1, FLIPR TETRA, intracellular Ca2+)
Assay type: cell-based
Settings: CHO dhfr- cells expressing hOX2R, FLIPR TETRA, Fluo-4AM; for Emax: read-out: Emax (%)

Chain of human orexin type 2 receptor (hOX2R) (O43614 whole entry): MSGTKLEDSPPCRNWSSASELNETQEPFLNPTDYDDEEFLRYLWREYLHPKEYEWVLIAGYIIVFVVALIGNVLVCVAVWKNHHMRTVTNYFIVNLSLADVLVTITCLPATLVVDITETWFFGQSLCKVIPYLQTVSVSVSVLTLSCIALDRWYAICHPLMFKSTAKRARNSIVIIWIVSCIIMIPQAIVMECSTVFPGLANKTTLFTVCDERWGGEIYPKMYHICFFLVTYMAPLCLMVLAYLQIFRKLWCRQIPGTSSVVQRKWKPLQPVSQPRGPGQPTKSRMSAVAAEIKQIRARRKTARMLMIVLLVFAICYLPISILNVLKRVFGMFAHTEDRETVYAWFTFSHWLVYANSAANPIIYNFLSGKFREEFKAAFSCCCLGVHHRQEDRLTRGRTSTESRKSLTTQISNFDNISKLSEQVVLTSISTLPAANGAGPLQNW

EC50 [nM] | Emax [%] | SMILES
1.2 | 97 | COC(=O)N1CCC[C@H](NS(C)(=O)=O)[C@@H]1CO[C@H]1CC[C@@H](c2cc(F)cc(F)c2)CC1 [Example 241, methyl (2R,3S)-2-(((cis-4-(3,5-difluorophenyl)cyclohexyl)oxy)methyl)-3-((methylsulfonyl)amino)piperidine-1-carboxylate]
0.88 | 99 | CS(=O)(=O)N[C@H]1CCCN(C(=O)C2CC2)[C@H]1CO[C@H]1CC[C@@H](c2cc(F)cc(F)c2)CC1 [Example 242, N-((2R,3S)-1-(cyclopropylcarbonyl)-2-(((cis-4-(3,5-difluorophenyl)cyclohexyl)oxy)methyl)piperidin-3-yl)methanesulfonamide]
17 | 97 | CC(=O)N1CCC[C@H](NS(C)(=O)=O)[C@@H]1CO[C@H]1CC[C@@H](c2cc(F)cc(F)c2F)CC1 [Example 243, N-((2R,3S)-1-acetyl-2-(((cis-4-(2,3,5-trifluorophenyl)cyclohexyl)oxy)methyl)piperidin-3-yl)methanesulfonamide]
2.6 | 97 | COC(=O)N1CCC[C@H](NS(C)(=O)=O)[C@@H]1CO[C@H]1CC[C@@H](c2cc(F)cc(F)c2F)CC1 [Example 244, methyl (2R,3S)-3-((methylsulfonyl)amino)-2-(((cis-4-(2,3,5-trifluorophenyl)cyclohexyl)oxy)methyl)piperidine-1-carboxylate]
2 | 97 | CS(=O)(=O)N[C@H]1CCCN(C(=O)C2CC2)[C@H]1CO[C@H]1CC[C@@H](c2cc(F)cc(F)c2F)CC1 [Example 245, N-((2R,3S)-1-(cyclopropylcarbonyl)-2-(((cis-4-(2,3,5-trifluorophenyl)cyclohexyl)oxy)methyl)piperidin-3-yl)methanesulfonamide]
730 | 113 | CS(=O)(=O)N[C@H]1CCCN(C(=O)C2CC2)[C@H]1COC1CCN(c2ccccc2F)CC1 [Example 246, N-((2R,3S)-1-(cyclopropylcarbonyl)-2-(((1-(2-fluorophenyl)piperidin-4-yl)oxy)methyl)piperidin-3-yl)methanesulfonamide]
1.7 | 105 | CS(=O)(=O)N[C@H]1CCCN(C(=O)C2CC2)[C@H]1CO[C@H]1CC[C@@H](c2cccc(F)c2F)CC1 [Example 250, N-((2R,3S)-1-(cyclopropylcarbonyl)-2-(((cis-4-(2,3-difluorophenyl)cyclohexyl)oxy)methyl)piperidin-3-yl)methanesulfonamide]
 | 97 | COC(=O)N1CCC[C@H](NS(C)(=O)=O)[C@@H]1CO[C@H]1CC[C@@H](c2c(F)ccc(F)c2F)CC1 [Example 257, methyl (2R,3S)-3-((methylsulfonyl)amino)-2-(((cis-4-(2,3,6-trifluorophenyl)cyclohexyl)oxy)methyl)piperidine-1-carboxylate]
0.72 | 101 | CS(=O)(=O)N[C@H]1CCCN(C(=O)C2CC2)[C@H]1CO[C@H]1CC[C@@H](c2c(F)ccc(F)c2F)CC1 [Example 258, N-((2R,3S)-1-(cyclopropylcarbonyl)-2-(((cis-4-(2,3,6-trifluorophenyl)cyclohexyl)oxy)methyl)piperidin-3-yl)methanesulfonamide]
550 | 99 | CS(=O)(=O)N[C@H]1CCCN[C@H]1CO[C@H]1CC[C@@H](c2ccccc2F)CC1 [Example 260, N-((2R,3S)-2-(((cis-4-(2-fluorophenyl)cyclohexyl)oxy)methyl)piperidin-3-yl)methanesulfonamide]
21 | 91 | CC(C)OC(=O)N1CCC[C@H](NS(C)(=O)=O)[C@@H]1CO[C@H]1CC[C@@H](c2cccc(F)c2)CC1 [Example 264, isopropyl (2R,3S)-2-(((cis-4-(3-fluorophenyl)cyclohexyl)oxy)methyl)-3-((methylsulfonyl)amino)piperidine-1-carboxylate]
